Assay results as given in patent US4690935A, “Inhibition of tumor growth and metastasis with calcium channel blocker compounds” (Wayne State University, priority 1983, dated 1987).

Tests used:
B16a Tumor Cells [1] = assay: 3H-thymidine incorporation into DNA of cultured B16a tumor cells; assay type: cell-based, mouse; details: for effect on 3H-thymidine incorporation (in words): B16a tumor cell DNA
Experimental: ^3 H-thymidine incorporation studies were designed to measure the effects of BAY e 9736, nimodipine on the incorporation of ^3 H-thymidine into the DNA of B16a tumor cells. One ml of cultured B16a tumor cells (in MEM+10% fetal calf serum) at 1×10^5 cells/ml are placed into plastic incubation tubes. The cells are incubated for 15 minutes at 37° C. in the presence of five microliters of dilutent (DMSO, dimethyl sulfoxide) alone or dilutent containing BAY e 9736. After 15 minutes, which is considered the preincubation period, the cells are incubated for one hour (at 37° C.) in the presence of one microcurie (per ml) ^3 H-thymidine. The assay is terminated by the addition of one milliliter of cold trichloroacetic acid, TCA, (6% w/v). The cells are centrifuged at 10,000×g ×4 minutes. The supernatant is discarded. The resulting pellet is resuspended in one milliliter of TCA, vortexed and then repelleted by centrifugation at 10,000 ×g ×4 minutes. The supernatant is discarded. The pellets are resuspended in 100 microliters of tissue solubilizing fluid (NCS from Amersham Corporation) and incubated for 2 hours at 50° C. Fifty microliter aliquots of the solubilized pellets are transferred into plastic scintillation vials containing 3 milliliters of scintillation fluid (Econofluor, New England Nuclear), allowed to cool and dark adjust, and counted.
A variation of the previously described experiment was used to determine the effects of BAY e 9736 on a different parameter of tumor cell proliferation, the replication of deoxyribonucleic acid (DNA) as measured by the incorporation of ^3 H-thymidine into tumor cell DNA. B16a tumor cells were grown in T-75 flasks and removed using trypsin, as previously described for Walker 256 L-Pam tumor cells. The B16a cells are quenched, washed, and resuspended in media (MEM+10% fetal calf serum, FCS) to a concentration of 1×10^5 cells/ml. One milliliter of tumor cells are placed into 5 ml plastic incubation tubes, and five microliters of media, dilutant, or dilutant containing 8, 4, or 2 milligram/ml BAY e 9736 are added to appropriate tubes. The assay was run, terminated, and the B16a tumor cell DNA extracted and counted as previously described.
Protocol same as previously described except nifedipine (40 mg) is first dissolved in absolute ethanol (0.5 ml) and then diluted with PEG-400 (1.5 ml) to a final concentration of 20 mg/ml. One microliter of the 20 mg/ml nifedipine solution was added to one ml of B16a tumor cells (for final concentration of 20 micrograms/ml). Nimodipine was dissolved as previously described.

B16a Tumor Cells [2] = assay: In vitro proliferation of B16a tumor cells; assay type: cell-based, mouse; details: for effect on tumor cell proliferation (in words): B16a cells, 10-40 micrograms/ml, five day assay
Experimental: Proliferation studies were designed to measure the effects of BAY e 9736 on the proliferation of B16 a tumor cells. B16a tumor cells were plated into T-25 flasks (4×10^4 cells/flask) and allowed to grow at 37° C. for 16 hours. The media was removed from the flasks and plating efficiency was determined using a Coulter counter. Replacement media was added to the flasks, which were allowed to incubate for 24 hours. After the 24 hour incubation, 10 microliters of control (media), DMSO, or BAY e 9736 in DMSO (40 mg/ml stock) was added to the flasks. Media replacement with and without BAY e 9736 were performed every 24 hours for 4 consecutive days. Control flasks (3) were terminated every day of the proliferation study with 4 terminated on the final day.
A 40 mg aliquot of BAY e 9736 was dissolved in 1 milliliter dimethyl sulfoxide (DMSO). Aliquots of this 40 mg/ml stock were diluted with DMSO to final concentrations of 20 and 10 mg/ml. At day two and each successive day, 10 microliter aliquots of 40, 20, and 10 mg/ml BAY e 9736 were added once a day to the new media of flasks containing proliferating B16a tumor cells as previously described.

B16a Tumor Cells [3] = assay: "Experimental" metastasis (lung colonies) induced by tail vein injection of B16a tumor cells; assay type: in vivo, mouse; details: oral, mice; for % of Control (mean number of metastatic lesions on lung surface): 1 h before and 1 h after tumor cells, 21 days, x ± SEM, n = 12, control = 100%; for reduction of lung colonies / tail vein metastasis (in words): tail vein injection of B16a
From the text: B16 amelanotic melanoma (B16a) and Walker 256 L-Pam carcinosarcoma were obtained from the Division of Cancer Treatment, Animal and Human Tumor Bank, Mason Research Institute, Worcester, Mass. Tumors were passaged four times after receipt in syngeneic C57BL/6J male mice (B16a) or allogenic Sprague Dawley rats (Walker 256 L-Pam). Passaging involved subcutaneous implantations of tumor pices (diced to approximately 2×2 MM) into the right auxiliary region using a 18 gauge needle. Mice weighing approximately 20 grams (4 to 5 weeks old) were used to passage the B16a cell line and female rats were used to passage the Walker 256 L-Pam cell line. Animals were housed under identical conditions of temperature, feeding, photoperiod, etc. The transplanted tumors were allowed to grow for approximately 14 days following implantation.
The B16a tumor cells, obtained by the previously described procedure of tumor dispersion and tumor cell elutriation were used to test the antimetastatic effect of BAY e 9736.
A 40 mg portion of BAY e 9736 was dissolved in 1 ml of polyethylene glycol (PEG-400). This stock solution was diluted 1:5, 1:10, 1:50 and 1:1000 with PEG-400. C56BL/6J mice weighing an average of 20 grams were injected orally with 0.1 ml of the diluted BAY e 9736 one hour before and one hour after challenge with tumor cells. One hour after the first oral administration of BAY e 9736, the mice were injected via the tail vein with a 3×10^4 B16a tumor cell suspension in 0.05 ml prepared as described previously. The control and treated mice were kept under identical conditions of temperature, feeding) photoperiod, etc. The mice were sacrificed 21 days after tail vein injection of the tumor cells and the lungs were removed, fixed in Bouin's solution and visible bilateral metastasis counted.

COCCOC(=O)C1=C(C)NC(C)=C(C(=O)OC(C)C)C1c1cccc([N+](=O)[O-])c1 (stereo not drawn) [BAY e 9736, 1,4-dihydro-2,6-dimethyl-4-(3' nitrophenyl)-pyridine-3-(beta-methyoxyethylester)-5-(isopropyl ester)]
effect on 3H-thymidine incorporation (in words) (B16a Tumor Cells [1]): inhibited the incorporation of ^3 H-thymidine into the tumor cell DNA | effect on 3H-thymidine incorporation (in words) (B16a Tumor Cells [1]; listed as nimodipine): decreases the rate of incorporation of ^3 H-thymidine into tumor cell DNA | activity at 10 µg/mL (B16a Tumor Cells [1]; Mus musculus, .01 mg/ml, 15 min preincubation, 1 hour incorporation, x ± SEM, n = 4, read-out: % of Control Tumor Cell Incorporation (3H-thymidine)): 77 ± 2.5% | activity at 20 µg/mL (B16a Tumor Cells [1]; Mus musculus, .02 mg/ml, 15 min preincubation, 1 hour incorporation, x ± SEM, n = 4, read-out: % of Control Tumor Cell Incorporation (3H-thymidine)): 56 ± 3.5% | activity at 40 µg/mL (B16a Tumor Cells [1]; Mus musculus, .04 mg/ml, 15 min preincubation, 1 hour incorporation, x ± SEM, n = 4, read-out: % of Control Tumor Cell Incorporation (3H-thymidine)): 38 ± 4% | effect on tumor cell proliferation (in words) (B16a Tumor Cells [2]): inhibits tumor cell proliferation | effect on tumor cell proliferation (in words) (B16a Tumor Cells [2]; listed as nimodipine): decreases the rate of tumor cell growth over a five day assay period | activity at 10 µg/mL (B16a Tumor Cells [2]; Mus musculus, .01 mg/ml, drug readded once daily, x ± SEM, n = 4, read-out: % of Control Tumor Cell Number): 50 ± 5% | activity at 20 µg/mL (B16a Tumor Cells [2]; Mus musculus, .02 mg/ml, drug readded once daily, x ± SEM, n = 4, read-out: % of Control Tumor Cell Number): 25 ± 5% | activity at 40 µg/mL (B16a Tumor Cells [2]; Mus musculus, .04 mg/ml, drug readded once daily, x ± SEM, n = 4, read-out: % of Control Tumor Cell Number): 14 ± 3% | % of Control (mean number of metastatic lesions on lung surface) (B16a Tumor Cells [3]; 0.2 mg/kg): 55 ± 5% | % of Control (mean number of metastatic lesions on lung surface) (B16a Tumor Cells [3]; 4.0 mg/kg): 60 ± 7% | % of Control (mean number of metastatic lesions on lung surface) (B16a Tumor Cells [3]; 20.0 mg/kg): 73 ± 13.7% | % of Control (mean number of metastatic lesions on lung surface) (B16a Tumor Cells [3]; 40.0 mg/kg): 74 ± 7.5% | reduction of lung colonies / tail vein metastasis (in words) (B16a Tumor Cells [3]): effective in reducing the number of lung colonies at all levels examined | reduction of lung colonies / tail vein metastasis (in words) (B16a Tumor Cells [3]; listed as nimodipine): reduce metastasis induced by tail vein injection
